According to the OPERA property sets (Mansouri et al. 2018):

First: O=S([O-])c1ccccc1.[Na+]
Second: O=S(=O)(NO)c1ccccc1
The logP of the first is lower: -3.54 for the first, 0.48 for the second.

`COc1ccc(C(C)=O)c(N)c1` and `COc1ccc(-c2ncc[nH]2)c(OC)c1` are within 0.2 log units of each other in logP: 1.76 for the first, 1.72 for the second.

Going from `COc1cccc(OC)c1OC` to `COc1cccc(OC)n1`, the logP rises from 1.53 to 2.3.

`COc1cc(C=O)ccc1OCCOC(=O)c1ccccc1Cl` and `CCOC(=O)CON=Cc1ccc(OCCOC(=O)c2ccccc2OC)c(OC)c1` are within 0.2 log units of each other in logP: 3.21 for the first, 3.27 for the second.

Going from `CCCCC(=O)Nc1ccc(Cl)c(Cl)c1` to `CCCC(=O)Nc1ccc(Cl)c(Cl)c1`, the logP falls from 4.17 to 3.77.

Going from `COc1ccc(Cc2cnc(N)nc2N)c(OC)c1OC` to `CCOc1cc(Cc2cnc(N)nc2N)cc(OCC)c1`, the logP rises from 1.52 to 2.52.

Going from `CC(=O)NNC(=O)c1ccccc1N(C)C` to `CCOC(=O)CC(=O)C=Cc1ccccc1C`, the logP rises from 1.49 to 2.66.

Going from `CN(C(=O)CCC(N)=O)c1ccc(S(=O)(=O)N(C)C)cc1` to `COC(=O)CCC(=O)N(C)c1ccc(S(=O)(=O)N(C)C)cc1`, the logP rises from -0.56 to 0.43.

First: O=C(O)c1ccco1
Second: O=C(O)c1ccc[nH]1
The logP of the first is lower: 0.64 for the first, 0.85 for the second.

First: CSC(=O)Nc1ccc(Cl)c(Cl)c1
Second: N#CCC(=O)Nc1ccc(Cl)c(Cl)c1
The logP of the first is higher: 4.23 for the first, 2.72 for the second.

Compared with `Cc1c(N2CCCC2)c(=O)n(-c2ccccc2)c(=O)n1C`, `Cc1c(N2CCOCC2)c(=O)n(-c2ccccc2)c(=O)n1C` is lower in logP: 2.26 for the first, 0.69 for the second.

Going from `O=[N+]([O-])c1ccc(OCCn2ccnn2)cc1` to `CC1(C)N=C(N)N=C(N)N1c1cccc([N+](=O)[O-])c1`, the logP falls from 1.19 to 0.06.

Going from `COc1ccc(-c2nc3ccccc3[nH]2)c(OC)c1` to `COc1ccc(-c2nc3ccncc3[nH]2)c(OCCCCl)c1`, the logP rises from 2.59 to 3.53.

Compared with `CN/C(=N\C#N)NCCSCc1csc(N=C(N)N)n1`, `CCOCCOC(=O)C(C#N)=C(NCc1ccc(Cl)cc1)C(C)C` is higher in logP: 0.68 for the first, 4.05 for the second.

Compared with `O=C(NC(CO)C(O)c1ccc(NC(=O)C2CC2)cc1)C(Cl)Cl` (stereo not drawn), `O=C(Nc1ccc(Cl)c(Cl)c1)C1CCCCC1` is higher in logP: 0.75 for the first, 4.72 for the second.

Compared with `CCCCNc1c(C)n(C)c(=O)n(-c2ccccc2)c1=O`, `CCN(CC)c1c(C)n(C)c(=O)n(-c2ccccc2)c1=O` is higher in logP: 1.69 for the first, 2.11 for the second.

Compared with `CSc1nccc(=O)[nH]1`, `CSc1cccc(NC(C)=O)c1` is higher in logP: 0.22 for the first, 2.14 for the second.

Compared with `Cc1c(N(C)C)c(=O)n(C)c(=O)n1C`, `CCN(CC)c1c(C)n(-c2ccccc2)c(=O)n(C)c1=O` is higher in logP: 0.99 for the first, 2.19 for the second.

`CC(=O)Nc1ccc(C#N)cc1` and `CC(=O)Nc1cccc(C#N)c1` are within 0.2 log units of each other in logP: 1.37 for the first, 1.2 for the second.

Going from `FC(F)(F)CN(CC(F)(F)F)c1ccccc1` to `c1ccc(Cc2nn[nH]n2)cc1`, the logP falls from 3.69 to 1.36.

Compared with `O=C([O-])c1cc2ccccc2cc1O.[Na+]`, `Cc1ccc(S(=O)(=O)Oc2ccccc2C(=O)N(C)C)cc1` is higher in logP: 0.17 for the first, 2.01 for the second.

First: CCC[Si](C)(C)C
Second: CCOC(CP(=O)(OCC)OCC)OCC
The logP of the first is higher: 3.84 for the first, 0.69 for the second.

Compared with `CCOC(=O)c1cncn1C(C)c1ccccc1` (stereo not drawn), `CCOC(=O)N=[N+]([O-])c1ccccc1` is lower in logP: 3.05 for the first, 2.53 for the second.

Compared with `CC(=O)NCCC(=O)N(C)c1ccc(S(=O)(=O)N(C)C)cc1`, `CC(Cl)C(=O)N(CC(=O)Nc1ccccc1)c1ccccc1` (stereo not drawn) is higher in logP: -0.35 for the first, 3.02 for the second.

Compared with `CCC(C)NC(=O)C(=Cc1ccccc1)Sc1ccccc1` (stereo not drawn), `ON=C(c1ccccc1)c1ccccc1` is lower in logP: 4.36 for the first, 3.2 for the second.

Going from `O=S(Cc1ccccn1)c1nc2ccccc2[nH]1` (stereo not drawn) to `NN=C(c1ccccc1)c1ccccc1`, the logP rises from 1.33 to 2.79.

Compared with `O=CC=Cc1ccco1`, `O=C(C=Cc1ccc2c(c1)OCO2)N1CCCCC1` is higher in logP: 1.15 for the first, 2.82 for the second.

Going from `Cn1c(C=O)cnc1[N+](=O)[O-]` to `CC(C)Cn1c(=O)n(C)c(=O)c2[nH]cnc21`, the logP rises from -0.1 to 1.15.

`O=NN1CCCCC1=O` and `CC1(C)N=C(N)N=C(N)N1c1ccc(OCC(=O)N2CCOCC2)cc1` are within 0.2 log units of each other in logP: -1.05 for the first, -1.18 for the second.

Compared with `NC1=NS(=O)(=O)c2ccc(Cl)cc2N1`, `CCCCC1OC(=O)c2cc(N(CCO)CCO)ccc21` (stereo not drawn) is higher in logP: 0.91 for the first, 1.34 for the second.

First: CC(C)(NC(=O)N(CCCl)N=O)C(=O)O
Second: NCC(=O)NCC(=O)NCC(=O)NCC(=O)NCC(=O)O
The logP of the first is higher: 1.74 for the first, -3.31 for the second.

Going from `CCCCCCCCCCCCCCCC(=O)OCC1OC(n2ccc(N)nc2=O)C(O)C1O` (stereo not drawn) to `CCCCCCCCCCCCN.Cl`, the logP falls from 5.03 to 1.85.

Compared with `CCCC1CNC(C(=O)NC(C(C)O)C2OC(SC)C(O)C(O)C2O)C1` (stereo not drawn), `CCCCCC1CNC(C(=O)NC(C(C)Cl)C2OC(SC)C(O)C(O)C2O)C1` (stereo not drawn) is higher in logP: 0.04 for the first, 2.74 for the second.

Compared with `CCC(C)N=C=S` (stereo not drawn), `CCCC1CC(C(=O)NC(C(C)Cl)C2OC(SC)C(O)C(O)C2O)N(CC)C1` (stereo not drawn) is lower in logP: 2.81 for the first, 2.51 for the second.

Compared with `COc1cc(C(=O)C=CN2CC=CC2)cc(OC)c1OC`, `CCOC(=O)CNCCCCCSc1c2[nH]cnc2nc[n+]1[O-]` is lower in logP: 1.77 for the first, 0.87 for the second.

Compared with `S=c1cc[nH]cc1`, `O=C(CN(C(=O)C(Cl)Cl)c1ccccc1)Nc1ccccc1` is higher in logP: 0.2 for the first, 2.96 for the second.

`Nc1nnc(N)[nH]1` showed a logP of -1.61.
